Tests used:
Details in all cases: 48 h
SEM cells [1] = test: cell viability relative to DMSO control; higher = less cytotoxic
Outline: (§1)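 Viability, reported as a per-plate percentage of DMSO wells with cell-free wells as background, came from CellTiter-Glo One luminescence. Reading took place after 48 h at 37°C. Before that, NOMO1 or SEM (500 cells/well) or P12-Ichikawa (1000 cells/well) leukemia cells, adapted for at least four passages in each medium, were seeded in 1536-well plates (5 μl) and pin-dosed with library compounds in DMSO, 47 μM to 0.79 nM over 11 threefold points.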

NOMO1 [2] = test: AUC of viability dose-response curve (% viability x log10 dose units); higher = less sensitive
Outline: (§2)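 Viability of medium-adapted leukemia cells was measured by CellTiter-Glo One luminescence after 48 h at 37°C with library compounds in DMSO. Doses were 11 threefold steps from 47 μM to 0.79 nM, in 1536-well plates at 500 or 1000 cells/well. Signals were normalised per plate to DMSO and cell-free wells and fitted with a four-parameter log-logistic model on log10 dose. Area under the curve was integrated by trapezoidal rule, with curves exceeding full viability scaled and failed quality-control curves removed.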

P12-Ichikawa [3] = test: as above
Outline: as §2

SEM cells [4] = test: as above
Outline: as §2

NOMO1 [5] = test: cell viability relative to DMSO control; higher = less cytotoxic
Outline: as §1

P12-Ichikawa [6] = test: as above
Outline: as §1

FC1=CC2=C3[N](CCN(CC3=C1)C(=O)N4CCCCC4)C=C2C/5=C(C(=O)NC5=O)\C6=CN=C7C=CC=C[N]67
SEM cells [1], HPLM + 10% dialyzed FBS
Details | cell viability [%]
0.000781 µM | 104
0.00234 µM | 109
0.00702 µM | 118
0.0211 µM | 57
0.0632 µM | 11.5
0.19 µM | 9.31
0.569 µM | 8.55
1.71 µM | 10.7
5.12 µM | 8.69
15.4 µM | 5.56
46.1 µM | 6.04

AUC of viability dose-response curve
Details | NOMO1 [2] | P12-Ichikawa [3] | SEM cells [4]
HPLM + 10% dialyzed FBS | 461 | 329 | 168
RPMI 5 mM glucose + 10% FBS | 469 | 298 | 159
RPMI 5 mM glucose + 10% dialyzed FBS | 463 | 367 | 159

Cc1cnc(Nc2cccc(CN3CCOCC3)c2)nc1Nc1cccc([S+](=O)([O-])NC(C)(C)C)c1
cell viability [%]
Details | NOMO1 [5] | P12-Ichikawa [6] | SEM cells [1]
HPLM + 10% dialyzed FBS, 0.000781 µM | 87.9 | 90 | 77.4
HPLM + 10% dialyzed FBS, 0.00234 µM | 99.6 | 91.9 | 80.3
HPLM + 10% dialyzed FBS, 0.00702 µM | 100 | 90.5 | 97.3
HPLM + 10% dialyzed FBS, 0.0211 µM | 96.4 | 96.2 | 91.7
HPLM + 10% dialyzed FBS, 0.0632 µM | 107 | 91.9 | 74.4
HPLM + 10% dialyzed FBS, 0.19 µM | 108 | 89.3 | 72.1
HPLM + 10% dialyzed FBS, 0.569 µM | 104 | 95.1 | 84.7
HPLM + 10% dialyzed FBS, 1.71 µM | 97.8 | 92.2 | 36.4
HPLM + 10% dialyzed FBS, 5.12 µM | 61.5 | 44 | 15.7
HPLM + 10% dialyzed FBS, 15.4 µM | 100 | 91.5 | 69.1
HPLM + 10% dialyzed FBS, 46.1 µM | 84.1 | 54.4 | 53.6
RPMI 5 mM glucose + 10% FBS, 0.000781 µM | 79.8 | 91 | 79.7
RPMI 5 mM glucose + 10% FBS, 0.00234 µM | 85.1 | 87.7 | 88.8
RPMI 5 mM glucose + 10% FBS, 0.00702 µM | 85.4 | 85.9 | 94.5
RPMI 5 mM glucose + 10% FBS, 0.0211 µM | 94.8 | 92.2 | 110
RPMI 5 mM glucose + 10% FBS, 0.0632 µM | 83.8 | 89.8 | 82.1
RPMI 5 mM glucose + 10% FBS, 0.19 µM | 78.1 | 88.7 | 87.9
RPMI 5 mM glucose + 10% FBS, 0.569 µM | 80.4 | 80.8 | 79
RPMI 5 mM glucose + 10% FBS, 1.71 µM | 75.2 | 86.4 | 58
RPMI 5 mM glucose + 10% FBS, 5.12 µM | 35.1 | 20.5 | 9.88
RPMI 5 mM glucose + 10% FBS, 15.4 µM | 86.3 | 88.2 | 74
RPMI 5 mM glucose + 10% FBS, 46.1 µM | 85.5 | 73.4 | 21.9
RPMI 5 mM glucose + 10% dialyzed FBS, 0.000781 µM | 84 | 80.8 | 79.6
RPMI 5 mM glucose + 10% dialyzed FBS, 0.00234 µM | 96.7 | 83.2 | 93.5
RPMI 5 mM glucose + 10% dialyzed FBS, 0.00702 µM | 86.2 | 82.6 | 93.5
RPMI 5 mM glucose + 10% dialyzed FBS, 0.0211 µM | 90.7 | 79.7 | 84.9
RPMI 5 mM glucose + 10% dialyzed FBS, 0.0632 µM | 88 | 85.9 | 72.5
RPMI 5 mM glucose + 10% dialyzed FBS, 0.19 µM | 98.6 | 82.3 | 64
RPMI 5 mM glucose + 10% dialyzed FBS, 0.569 µM | 93.6 | 85.4 | 81.8
RPMI 5 mM glucose + 10% dialyzed FBS, 1.71 µM | 85.1 | 81.4 | 17.9
RPMI 5 mM glucose + 10% dialyzed FBS, 5.12 µM | 43.5 | 41.7 | 9.6
RPMI 5 mM glucose + 10% dialyzed FBS, 15.4 µM | 90.7 | 76.8 | 66.4
RPMI 5 mM glucose + 10% dialyzed FBS, 46.1 µM | 87.3 | 53.1 | 39.3

SEM cells [4]
Details | AUC of viability dose-response curve
HPLM + 10% dialyzed FBS | 329
RPMI 5 mM glucose + 10% FBS | 345
RPMI 5 mM glucose + 10% dialyzed FBS | 308

F\C1=C\NC(=O)NC1=O
AUC of viability dose-response curve
Details | NOMO1 [2] | P12-Ichikawa [3] | SEM cells [4]
HPLM + 10% dialyzed FBS | 414 | 405 | 407
RPMI 5 mM glucose + 10% FBS | 437 | 435 | 410
RPMI 5 mM glucose + 10% dialyzed FBS | 422 | 413 | 412

N=C1S/C(=C\c2ccc(-c3ccc4c(c3)C(=O)NC4=O)o2)C(=O)N1c1ccc(Br)cc1
AUC of viability dose-response curve
Details | NOMO1 [2] | P12-Ichikawa [3] | SEM cells [4]
HPLM + 10% dialyzed FBS | 444 | 452 | 453
RPMI 5 mM glucose + 10% FBS | 464 | 443 | 365
RPMI 5 mM glucose + 10% dialyzed FBS | 459 | 448 | 458

C[S+](=O)([O-])OCCCCO[S+](C)(=O)[O-]
SEM cells [1], HPLM + 10% dialyzed FBS
Details | cell viability [%]
0.000781 µM | 102
0.00234 µM | 119
0.00702 µM | 134
0.0211 µM | 124
0.0632 µM | 145
0.19 µM | 129
0.569 µM | 142
1.71 µM | 128
5.12 µM | 109
15.4 µM | 89.6
46.1 µM | 43.1

AUC of viability dose-response curve
Details | NOMO1 [2] | P12-Ichikawa [3] | SEM cells [4]
HPLM + 10% dialyzed FBS | 407 | 451 | 440
RPMI 5 mM glucose + 10% FBS | 449 | 438 | 438
RPMI 5 mM glucose + 10% dialyzed FBS | 462 | 450 | 436

COC1=CC(c2cc3ccccc3[nH]2)=N/C1=C/c1[nH]c(C)cc1C
AUC of viability dose-response curve
Details | NOMO1 [2] | P12-Ichikawa [3] | SEM cells [4]
HPLM + 10% dialyzed FBS | 463 | 455 | 436
RPMI 5 mM glucose + 10% FBS | 470 | 450 | 420
RPMI 5 mM glucose + 10% dialyzed FBS | 448 | 452 | 391

C[C@@H]1C[C@@H]([C@H](O)CC2CC(=O)NC(=O)C2)C(=O)[C@@H](C)C1
AUC of viability dose-response curve
Details | NOMO1 [2] | P12-Ichikawa [3] | SEM cells [4]
HPLM + 10% dialyzed FBS | 315 | 312 | 279
RPMI 5 mM glucose + 10% FBS | 337 | 288 | 268
RPMI 5 mM glucose + 10% dialyzed FBS | 323 | 299 | 295

C[C@H](c1ccc(F)cc1CCCC(=O)O)N(c1cc(F)ccc1F)[S+](=O)([O-])c1ccc(Cl)cc1
AUC of viability dose-response curve
Details | NOMO1 [2] | P12-Ichikawa [3] | SEM cells [4]
HPLM + 10% dialyzed FBS | 452 | 454 | 462
RPMI 5 mM glucose + 10% FBS | 455 | 449 | 465
RPMI 5 mM glucose + 10% dialyzed FBS | 450 | 447 | 461

Clc1ccc(C(Cn2ccnc2)OCc2c(Cl)cccc2Cl)c(Cl)c1 (configuration not stated)
SEM cells [1], HPLM + 10% dialyzed FBS
Details | cell viability [%]
0.000781 µM | 109
0.00234 µM | 105
0.00702 µM | 121
0.0211 µM | 107
0.0632 µM | 117
0.19 µM | 125
0.569 µM | 130
1.71 µM | 117
5.12 µM | 121
15.4 µM | 114
46.1 µM | 117

AUC of viability dose-response curve
Details | NOMO1 [2] | P12-Ichikawa [3] | SEM cells [4]
HPLM + 10% dialyzed FBS | 466 | 474 | 462
RPMI 5 mM glucose + 10% FBS | 468 | 466 | 471
RPMI 5 mM glucose + 10% dialyzed FBS | 468 | 468 | 467
